Measured values: US11845770B2, “Ascaroside derivatives and methods of use” (California Institute of Technology, priority 2019, dated 2023)

What was measured:
[1] = Plasma protein binding, HT-Dialysis (human); type: in vitro ADME; conditions: pH 7.4, dialysis 4 hours, read-out: percent unbound
Method: HT-Dialysis plate (Model HTD 96 b, Cat #1006) and the dialysis membrane (molecular weight cut off 12-14 KDa, Cat #1101) can be purchased from HT Dialysis LLC (Gales Ferry, CT).
The plasma was thawed under running cold tap water and centrifuged at 3220×g for 5 min to remove any clots. The pH value was checked and recorded. Only plasma within range of pH 7.0 to pH 8.0 was used. The dialysis membrane was pretreated according to the manufacturer's instructions. Briefly, the dialysis membrane strips were soaked in ultra-pure water at room temperature for approximately 1 hr. After that, each membrane strip that contained 2 membranes was separated and soaked in ethanol:water (20:80 v:v) for approximately 20 min. The membrane was rinsed and soaked for 20 min in ultra-pure water.
Aliquots of 50 μL loading plasma (matrix) containing compound 1 or warfarin in triplicate were transferred to the appropriate wells of a sample collection plate. The samples were matched with dialysis buffer to obtain a final volume of 100 μL with a volume ratio of plasma (matrix):dialysis buffer (1:1, v:v) in each well. […]
The % Unbound, % Bound, % Recovery and % Remaining were calculated using the following equations: % Unbound=100×F/T % Bound=100−% Unbound % Recovery=100×(F+T)/T0 • F=the compound 1 concentration on the receiver side of the membrane/Correction Factor. […]

CYP2C9 = target: T1, CYP2C9 (Homo sapiens, UniProt P11712); assay: 5 in 1 CYP inhibition assay, CYP2C9; type: in vitro ADME; conditions: microsomes, probe diclofenac (4′-hydroxylation), test compound 10 μM, n=2, read-out: inhibition of cytochrome P450 isoform 2C9
T1 construct: from tissue
Method: (§1) CYP450 dependent activities were determined using a marker substrate cocktail. For each reaction, enzyme activities in the presence and absence of test compound (10 μM) were measured in duplicate. A known inhibitor for each isoform, tested at a single concentration (3 μM, n=2), was included as positive control. Incubation mixtures containing microsomes, substrate, and standard inhibitor or test compound were warmed at 37° C. for 10 minutes. Reactions were initiated by addition of the NADPH and incubated for 10 min. [table] After incubation, ice cold acetonitrile was added to terminate the reaction. Generation of metabolites from the substrate reactions was determined by LC-MS/MS.

CYP2D6 = target: T2, CYP2D6 (Homo sapiens, UniProt P10635); assay: 5 in 1 CYP inhibition assay, CYP2D6; type: in vitro ADME; conditions: microsomes, probe dextromethorphan (O-demethylation), test compound 10 μM, n=2, read-out: inhibition of cytochrome P450 isoform 2D6
T2 construct: from tissue
Method: as §1

CYP3A4 = target: T3, CYP3A4 (Homo sapiens, UniProt P08684); assay: 5 in 1 CYP inhibition assay, CYP3A4; type: in vitro ADME; conditions: microsomes, probe midazolam (1′-hydroxylation), test compound 10 μM, n=2, read-out: inhibition of cytochrome P450 isoform 3A4
T3 construct: from tissue
Method: as §1

human naïve T cells = assay: Stimulation of blood derived naïve T cells with Der p1 (house dust mite) antigen; type: cell-based; conditions: human naïve T cells, Der p1 antigen 5 days; 0.1-100 μM; FIG. 14
Method: Naïve T cells from peripheral blood samples were collected and processed using MACSxpress® Whole Blood Pan T Cell Isolation Kit (Miltenyi Biotec), according to the manufacturer's protocol. Isolated naïve T cells were cultured in RPMI medium supplemented with 5% Fetal Bovine Serum (FBS) at 37° C. with 5% (v/v) CO2. T cells were seeded in 24 well plates at a density of 0.5×10^6 cells per well. The cells were pre-treated with the compounds (0, 0.1, 1.0, 10, 100 μM) for 1 hour prior to stimulation. Cells were stimulated with […] of Dermatophagoides pteronyssinus (Der p1) antigen. After 48 hours, fresh […] of Der p1 was added and continued incubating for a further 72 hours at 37° C. with 5% (v/v) CO2. Overall T cells were stimulated with […] of Der p1 antigen for 5 days before supernatants were collected and stored at −80° C. until quantitative detection assays are performed.
Human Interleukin-4 (IL-4), Interleukin-5 (IL-5), Interleukin-6 (IL-6), Interleukin-8 (IL-8), Interleukin-13 ([…]), Interleukin-23 (IL-23), and Interferon gamma (IFNγ) released from supernatants collected post stimulation were measured using Human Magnetic Luminex® Assay Kit. Human Transforming Growth Factor beta (TGFβ) was measured using an Enzyme-Linked Immunosorbent Assay (ELISA)-based analysis.

T2 sequence (P10635 whole entry, canonical isoform): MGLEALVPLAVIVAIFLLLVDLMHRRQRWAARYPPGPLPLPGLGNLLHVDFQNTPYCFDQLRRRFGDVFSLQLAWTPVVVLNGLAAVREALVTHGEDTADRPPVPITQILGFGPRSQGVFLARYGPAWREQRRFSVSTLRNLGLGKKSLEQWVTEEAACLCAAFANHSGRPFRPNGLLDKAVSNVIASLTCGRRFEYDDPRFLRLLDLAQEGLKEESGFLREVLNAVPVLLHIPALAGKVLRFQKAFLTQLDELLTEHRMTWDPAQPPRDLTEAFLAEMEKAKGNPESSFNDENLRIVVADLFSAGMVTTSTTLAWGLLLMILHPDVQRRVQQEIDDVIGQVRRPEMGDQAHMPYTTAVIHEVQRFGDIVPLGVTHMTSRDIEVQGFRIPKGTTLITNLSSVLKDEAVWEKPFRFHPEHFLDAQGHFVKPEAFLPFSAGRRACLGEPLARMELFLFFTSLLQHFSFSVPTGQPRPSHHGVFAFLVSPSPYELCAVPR
T1 sequence (P11712 whole entry, canonical isoform): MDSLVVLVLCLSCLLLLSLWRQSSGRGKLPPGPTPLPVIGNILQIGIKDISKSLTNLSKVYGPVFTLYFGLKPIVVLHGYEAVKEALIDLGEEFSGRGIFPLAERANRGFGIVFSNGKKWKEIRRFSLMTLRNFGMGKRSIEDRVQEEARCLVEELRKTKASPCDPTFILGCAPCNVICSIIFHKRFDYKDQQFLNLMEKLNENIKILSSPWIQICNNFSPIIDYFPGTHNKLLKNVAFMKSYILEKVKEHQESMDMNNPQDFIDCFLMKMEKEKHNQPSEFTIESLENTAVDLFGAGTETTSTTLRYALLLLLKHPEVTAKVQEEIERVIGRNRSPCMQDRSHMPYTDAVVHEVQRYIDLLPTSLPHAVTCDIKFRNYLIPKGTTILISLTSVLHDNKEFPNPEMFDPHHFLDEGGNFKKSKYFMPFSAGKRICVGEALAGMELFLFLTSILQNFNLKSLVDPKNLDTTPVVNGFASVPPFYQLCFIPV
T3 sequence (P08684 whole entry, canonical isoform): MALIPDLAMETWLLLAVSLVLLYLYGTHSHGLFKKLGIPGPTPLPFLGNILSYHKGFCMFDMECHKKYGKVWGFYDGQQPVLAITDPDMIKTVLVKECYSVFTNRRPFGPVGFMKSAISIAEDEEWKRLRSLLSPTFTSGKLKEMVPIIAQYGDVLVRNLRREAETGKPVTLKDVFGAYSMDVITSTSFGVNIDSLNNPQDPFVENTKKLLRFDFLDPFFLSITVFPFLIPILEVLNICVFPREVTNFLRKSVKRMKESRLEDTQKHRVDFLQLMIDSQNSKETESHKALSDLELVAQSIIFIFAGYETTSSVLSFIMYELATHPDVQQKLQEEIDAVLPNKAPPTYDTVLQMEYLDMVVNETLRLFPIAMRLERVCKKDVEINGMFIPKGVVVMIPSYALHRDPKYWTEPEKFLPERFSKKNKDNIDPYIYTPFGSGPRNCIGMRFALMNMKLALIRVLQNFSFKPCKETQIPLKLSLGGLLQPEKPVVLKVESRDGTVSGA

Row | fraction unbound at 4 h [1] | inhibition at 10 min, 10 µM (CYP2C9) [%] | inhibition at 10 min, 10 µM (CYP2D6) [%] | inhibition at 10 min, 10 µM (CYP3A4) [%] | SMILES | percent inhibition relative to Stimulated of IFNγ expression (human naïve T cells) | percent inhibition relative to Stimulated of IL-5 expression (human naïve T cells) | percent inhibition relative to Stimulated of TGFβ expression (human naïve T cells)
1 | 0.329 | 4.3 | 10.1 | 1 | C[C@H](CC/C=C/C(=O)OC(C)(C)C)O[C@@H]1O[C@@H](C)[C@H](O)C[C@H]1O [Compound 1, tert-butyl (2E,6R)-6-{[(2R,3R,5R,6S)-3,5-dihydroxy-6-methyloxan-2-yl]oxy}hept-2-enoate] | in a statistically significant, dose-dependent manner | in a statistically significant, dose-dependent manner | in a statistically significant, dose-dependent manner
2 | 0.868 | 0 | 4.6 | 0 | C[C@H](CC/C=C/C(=O)O)O[C@@H]1O[C@@H](C)[C@H](O)C[C@H]1O [ascr #7, reference compound] | statistically significant, robust blocking | dose-dependent inhibition | slight attenuation
